Experiment [1] relates to adiponectin secretion, 3T3-L1 adipocytes. The experiment can be described thus: Adiponectin secretion from TNFα-treated 3T3-L1 adipocytes. It is filed as cell-based, murine. To be noted: 10 ng TNFα/ml.
Procedure: 3T3-L1 cells were seeded at an initial density of 1×10^4 cells/cm^2 in 96-well plates. For two days, the cells were allowed grow to reach confluence. Following confluence, the cells were forced to differentiate into adipocytes by the addition of differentiation medium; this medium consisted of (1) 10% FBS/DMEM (high glucose); (2) 0.5 mM methylisobutylxanthine; (3) 0.5 μM dexamethasone and (4) 10 μg/ml insulin (MDI medium). From Day 3 through Day 5, the medium was changed to post-differentiation medium consisting of 10% FBS in DMEM. […] On Day 6, the supernatant medium was sampled for adiponectin determination.
Statistical Calculations and Interpretation—All assays were preformed in duplicate. […] Differences among the doses and test agents were determined using the Student's t-test without correction for multiple comparisons; the nominal five percent probability of a type I error was selected.
Experiment [2] relates to NF-kBp65 nuclear translocation. The experiment can be described thus: Nuclear NF-kBp65 in TNFα-treated 3T3-L1 adipocytes. To be noted: three or 24 hours. It is filed as cell-based, murine. How it is done: Cell Culture and Treatment—Following differentiation 3T3-L1 adipocytes were maintained in post-differentiation medium for an additional 40 days. […] Hops derivatives and the positive control pioglitazone were tested at concentrations of 2.5, and 5.0 μg/ml. Test materials were added 1 hour prior to and nuclear extracts were prepared three and 24 hours following treatment with TNFα.
ELISA—3T3-L1 adipocytes were maintained in growth media for 40 days following differentiation. Nuclear NF-kBp65 was determined using the TransAM™ NF-kB kit from Active Motif (Carlsbad, Calif.) was used with no modifications. Jurkat nuclear extracts provided in the kit were derived from cells cultured in medium supplemented with 50 ng/ml TPA (phorbol, 12-myristate, 13 acetate) and 0.5 μM calcium ionophore A23187 for two hours at 37° C. immediately prior to harvesting.
Protein assay—Nuclear protein was quantified using the Active Motif Fluorescent Protein Quantification Kit.

In experiment [3] the test system is DBA/J mice. Briefly: Collagen induced rheumatoid arthritis murine model, arthritic index. It is filed as in vivo, mouse. To be noted: 10 mg/kg.
Procedure: The mice were injected intradermally on day 0 with a mixture containing 100 μg of type II collagen and 100 μg of Mycobacterium tuberculosis in squalene. A booster injection was repeated on day 21. Mice were examined on days 22-27 for arthritic signs with nonresponding mice removed from the study.
Arthritic symptomology was assessed (scored 0-4) for each paw using a arthritic index as described below. Under this arthritic index 0=no visible signs; 1=edema and/or erythema: single digit; 2=edema and or erythema: two joints; 3=edema and or erythema: more than two joints; and 4=severe arthritis of the entire paw and digits associated with ankylosis and deformity.
Experiment [4] relates to adiponectin secretion, 3T3-L1 adipocytes. Briefly: Adiponectin secretion in LPS/3T3-L1 adipocytes. It is filed as cell-based, murine.
In experiment [5] the test system is human PI3K-β, PI3K-γ, and PI3K-δ. The experiment can be described thus: PI3K isoform inhibition (Example 3). It is filed as biochemical. To be noted: 50 μg/ml. Here is the method:
Additionally examined was an Acacia nilotica heartwood extract. All compounds were tested at 50 μg/ml. The results are presented graphically as FIG. 3. […] Mg-IAA was approximately 3-fold more inhibitory to PI3K-β than to PI3K-γ or PI3K-δ.

Experiment [6] relates to adiponectin secretion, 3T3-L1 adipocytes. The experiment can be described thus: Adiponectin secretion from insulin-resistant 3T3-L1 adipocytes. The class given is cell-based, murine.
Experiment [7] relates to IL-6 secretion, 3T3-L1 adipocytes. Briefly: IL-6 secretion from TNFα-treated 3T3-L1 adipocytes. To be noted: 10 ng TNFα/ml.

Structures are written as SMILES.

Regarding `CCc1ccc(CCOc2ccc(CC3SC(=O)NC3=O)cc2)nc1` (centres unmarked) [pioglitazone], the “maximal restoration of adiponectin secretion, times the TNFα treatment” value in experiment [1] came out at 1.47 times. Further, the “nuclear NF-kBp65, in words” value in experiment [2] was “did not inhibit”.

Turning to `C[C@]12C=CC(=O)C=C1CC[C@@H]1[C@@H]2[C@@H](O)C[C@@]2(C)[C@H]1CC[C@]2(O)C(=O)CO` [prednisolone], the “days with significant reduction of arthritic index” value in experiment [3] is reported as “days 30-42”. Take `O=C(O)c1ccccc1O` [salicylic acid]: in experiment [4], the “adiponectin secretion in LPS-treated adipocytes, in words” value is on record as “failed to induce adiponectin secretion”. As to `CC(=O)Oc1ccccc1C(=O)O` [Aspirin, aspirin], in experiment [4], the “adiponectin secretion in LPS-treated adipocytes, in words” value is on record as “failed to induce adiponectin secretion”. Regarding `COc1cc(O)c(CC=C(C)C)c(O)c1C(=O)/C=C/c1ccc(O)cc1` [xanthohumol], in experiment [5], the “effect on PI3K isoforms, in words” value is “more inhibitory to PI3K-γ than to PI3K-β or PI3K-δ”.

Regarding `CC(C)CCC1=C(O)C(C(=O)C(C)C)=C(O)C(CCC(C)C)(CCC(C)C)C1=O` [hexahydro colupulone], the “concentration of maximal observed adiponectin secretion” value in experiment [6] amounted to 12.5 µg/mL. Take `COc1ccc2c(c1)c(CC(=O)O)c(C)n2C(=O)c1ccc(Cl)cc1` [indomethacin]: in experiment [7], the “IL-6 secretion in presence of TNFα, in words” value was “no anti-inflammatory effect”.

The record behind these values is patent publication US20080248131A1 (Metaproteomics, LLC, priority 2005, published 2008).
